Tests used:
barnyardgrass [1] = test: Test C flooded paddy test; type: in vivo, Echinochloa crus-galli; settings: Flood
How it was run: (§1)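 Visual ratings from 0, no effect, to 100, complete control, were made against untreated controls after 13–15 greenhouse days. Compounds had gone straight into paddy water 3 cm above the soil, kept at that depth, on 2-leaf-stage plants.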

giant foxtail = test: Test A pre-/postemergence herbicide test; type: in vivo, Setaria faberii
How it was run: (§2)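 Visual 0–100 ratings (100 = complete control) made about 10 days after treatment, greenhouse-held plants compared with untreated controls. Treatments: postemergence sprays on one- to two-leaf plants (2–10 cm tall) and preemergence directed soil sprays after planting in loam–sand, chemicals formulated in non-phytotoxic solvent containing surfactant.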

morningglory = test: Test A pre-/postemergence herbicide test; type: in vivo, Ipomoea spp.
How it was run: as §2

barnyardgrass [2] = test: Test A pre-/postemergence herbicide test; type: in vivo, Echinochloa crus-galli
How it was run: as §2

sedge, umbrella = test: Test C flooded paddy test; type: in vivo, Cyperus difformis; settings: Flood
How it was run: as §1

pigweed = test: Test A pre-/postemergence herbicide test; type: in vivo, Amaranthus retroflexus
How it was run: as §2

rice = test: Test C flooded paddy test; type: in vivo, Oryza sativa; settings: Flood
How it was run: as §1

ducksalad = test: Test C flooded paddy test; type: in vivo, Heteranthera limosa; settings: Flood
How it was run: as §1

crabgrass, large = test: Test A pre-/postemergence herbicide test; type: in vivo, Digitaria sanguinalis
How it was run: as §2

velvetleaf = test: Test A pre-/postemergence herbicide test; type: in vivo, Abutilon theophrasti
How it was run: as §2

corn = test: Test A pre-/postemergence herbicide test; type: in vivo, Zea mays
How it was run: as §2

wheat = test: Test A pre-/postemergence herbicide test; type: in vivo, Triticum aestivum
How it was run: as §2

[3] = 31 g ai/ha, scale of 0 to 100 where 0 is no effect and 100 is complete control, 13 to 15 days
[4] = 62 g ai/ha, scale of 0 to 100 where 0 is no effect and 100 is complete control, 13 to 15 days
[5] = 125 g ai/ha, scale of 0 to 100 where 0 is no effect and 100 is complete control, 13 to 15 days
[6] = Postemergence, 125 g ai/ha, 0 to 100 scale, 0 no effect, 100 complete control
[7] = Postemergence, 500 g ai/ha, 0 to 100 scale (0 no effect, 100 complete control)
[8] = Preemergence, 125 g ai/ha, visual rating on 0 to 100 scale (0 no effect, 100 complete control)
[9] = preemergence, 500 g ai/ha, 0 to 100 scale
[10] = preemergence, 500 g ai/ha, 0 to 100 scale (0 no effect, 100 complete control)
[11] = Postemergence, 1000 g ai/ha, 0 to 100 scale (0 no effect, 100 complete control)
[12] = Preemergence, 1000 g ai/ha, visual rating on 0 to 100 scale (0 no effect, 100 complete control), approx. 10 days

CC1NC(=O)C(C(=O)Nc2ccccc2C(F)(F)F)C1c1ccc(F)c(F)c1 (mixture of isomers) [Compound 10]
Plant response rating, Barnyardgrass (barnyardgrass [1]; [3]): 0
Plant response rating, Barnyardgrass (barnyardgrass [1]; [4]): 0
Plant response rating, Barnyardgrass (barnyardgrass [1]; [5]): 0
Plant response rating, Barnyardgrass (barnyardgrass [1]; 250 g ai/ha, scale 0 to 100): 0
Plant response rating, Foxtail, Giant (giant foxtail; [6]): 0
Plant response rating, Foxtail, Giant (giant foxtail; [7]): 30
Foxtail, Giant plant response rating (giant foxtail; [8]): 60
Plant response rating, Foxtail, Giant (giant foxtail; [9]): 90
Plant response rating, Morningglory (morningglory; [6]): 0
Plant response rating, Morningglory (morningglory; [7]): 0
Morningglory plant response rating (morningglory; [8]): 0
Plant response rating, Morningglory (morningglory; [9]): 0
Plant response rating, Barnyardgrass (barnyardgrass [2]; [6]): 0
Plant response rating, Barnyardgrass (barnyardgrass [2]; [7]): 40
Barnyardgrass plant response rating (barnyardgrass [2]; [8]): 0
Plant response rating, Barnyardgrass (barnyardgrass [2]; [10]): 40
Plant response rating, Sedge, Umbrella (sedge, umbrella; [3]): 0
Plant response rating, Sedge, Umbrella (sedge, umbrella; [4]): 0
Plant response rating, Sedge, Umbrella (sedge, umbrella; [5]): 0
Plant response rating, Sedge, Umbrella (sedge, umbrella; 250 g ai/ha, scale 0 to 100): 0
Plant response rating, Pigweed (pigweed; [6]): 0
Plant response rating, Pigweed (pigweed; [7]): 0
Pigweed plant response rating (pigweed; [8]): 0
Plant response rating, Pigweed (pigweed; [9]): 0
Plant response rating, Rice (rice; [3]): 0
Plant response rating, Rice (rice; [4]): 0
Plant response rating, Rice (rice; [5]): 0
Plant response rating, Rice (rice; 250 g ai/ha, scale 0 to 100): 0
Plant response rating, Ducksalad (ducksalad; [3]): 0
Plant response rating, Ducksalad (ducksalad; [4]): 0
Plant response rating, Ducksalad (ducksalad; [5]): 0
Plant response rating, Ducksalad (ducksalad; 250 g ai/ha, scale 0 to 100): 0
Plant response rating, Crabgrass, Large (crabgrass, large; [6]): 20
Plant response rating, Crabgrass, Large (crabgrass, large; [7]): 60
Crabgrass, Large plant response rating (crabgrass, large; [8]): 90
Plant response rating, Crabgrass, Large (crabgrass, large; [9]): 90
Plant response rating, Velvetleaf (velvetleaf; [6]): 0
Plant response rating, Velvetleaf (velvetleaf; [7]): 0
Velvetleaf plant response rating (velvetleaf; [8]): 0
Plant response rating, Velvetleaf (velvetleaf; [9]): 0
Plant response rating, Corn (corn; [6]): 0
Plant response rating, Corn (corn; [7]): 0
Corn plant response rating (corn; [8]): 0
Plant response rating, Corn (corn; [9]): 0
Plant response rating, Wheat (wheat; [6]): 0
Plant response rating, Wheat (wheat; [7]): 0
Wheat plant response rating (wheat; [8]): 0
Plant response rating, Wheat (wheat; [9]): 0

O=C1NC[C@@H](c2ccc(F)c(F)c2)[C@@H]1C(=O)Nc1ccccc1F [Compound 102]
Plant response rating, Barnyardgrass (barnyardgrass [1]; [5]): 0
Plant response rating, Barnyardgrass (barnyardgrass [1]; 250 g ai/ha, scale 0 to 100): 0
Plant response rating, Barnyardgrass (barnyardgrass [1]; 500 g ai/ha, scale 0 to 100): 0
Plant response rating, Barnyardgrass (barnyardgrass [1]; 1000 g ai/ha, scale 0 to 100): 0
Plant response rating, Foxtail, Giant (giant foxtail; [6]): 0
Plant response rating, Foxtail, Giant (giant foxtail; [7]): 0
Foxtail, Giant plant response rating (giant foxtail; [8]): 0
Plant response rating, Foxtail, Giant (giant foxtail; [9]): 0
Plant response rating, Morningglory (morningglory; [6]): 0
Plant response rating, Morningglory (morningglory; [7]): 0
Morningglory plant response rating (morningglory; [8]): 0
Plant response rating, Morningglory (morningglory; [9]): 0
Plant response rating, Barnyardgrass (barnyardgrass [2]; [6]): 0
Plant response rating, Barnyardgrass (barnyardgrass [2]; [7]): 0
Barnyardgrass plant response rating (barnyardgrass [2]; [8]): 0
Plant response rating, Barnyardgrass (barnyardgrass [2]; [10]): 0
Plant response rating, Sedge, Umbrella (sedge, umbrella; [5]): 0
Plant response rating, Sedge, Umbrella (sedge, umbrella; 250 g ai/ha, scale 0 to 100): 0
Plant response rating, Sedge, Umbrella (sedge, umbrella; 500 g ai/ha, scale 0 to 100): 0
Plant response rating, Sedge, Umbrella (sedge, umbrella; 1000 g ai/ha, scale 0 to 100): 0
Plant response rating, Pigweed (pigweed; [6]): 0
Plant response rating, Pigweed (pigweed; [7]): 0
Pigweed plant response rating (pigweed; [8]): 0
Plant response rating, Pigweed (pigweed; [9]): 0
Plant response rating, Rice (rice; [5]): 0
Plant response rating, Rice (rice; 250 g ai/ha, scale 0 to 100): 0
Plant response rating, Rice (rice; 500 g ai/ha, scale 0 to 100): 0
Plant response rating, Rice (rice; 1000 g ai/ha, scale 0 to 100): 0
Plant response rating, Ducksalad (ducksalad; [5]): 0
Plant response rating, Ducksalad (ducksalad; 250 g ai/ha, scale 0 to 100): 0
Plant response rating, Ducksalad (ducksalad; 500 g ai/ha, scale 0 to 100): 0
Plant response rating, Ducksalad (ducksalad; 1000 g ai/ha, scale 0 to 100): 0
Plant response rating, Crabgrass, Large (crabgrass, large; [6]): 0
Plant response rating, Crabgrass, Large (crabgrass, large; [7]): 0
Crabgrass, Large plant response rating (crabgrass, large; [8]): 0
Plant response rating, Crabgrass, Large (crabgrass, large; [9]): 0
Plant response rating, Velvetleaf (velvetleaf; [6]): 0
Plant response rating, Velvetleaf (velvetleaf; [7]): 0
Velvetleaf plant response rating (velvetleaf; [8]): 0
Plant response rating, Velvetleaf (velvetleaf; [9]): 0
Plant response rating, Corn (corn; [6]): 0
Plant response rating, Corn (corn; [7]): 0
Corn plant response rating (corn; [8]): 0
Plant response rating, Corn (corn; [9]): 0
Plant response rating, Wheat (wheat; [6]): 0
Plant response rating, Wheat (wheat; [7]): 0
Wheat plant response rating (wheat; [8]): 0
Plant response rating, Wheat (wheat; [9]): 0

O=C1NCC(c2ccc(Cl)c(Cl)c2)C1C(=O)Nc1cccc(F)c1 (racemic) [Compound 27]
Plant response rating, Barnyardgrass (barnyardgrass [1]; [4]): 0
Plant response rating, Barnyardgrass (barnyardgrass [1]; 250 g ai/ha, scale 0 to 100): 0
Plant response rating, Foxtail, Giant (giant foxtail; [11]): 60
Plant response rating, Foxtail, Giant (giant foxtail; [12]): 90
Plant response rating, Morningglory (morningglory; [11]): 0
Plant response rating, Morningglory (morningglory; [12]): 0
Plant response rating, Barnyardgrass (barnyardgrass [2]; [11]): 70
Plant response rating, Barnyardgrass (barnyardgrass [2]; [12]): 70
Plant response rating, Sedge, Umbrella (sedge, umbrella; [4]): 0
Plant response rating, Sedge, Umbrella (sedge, umbrella; 250 g ai/ha, scale 0 to 100): 0
Plant response rating, Pigweed (pigweed; [11]): 0
Plant response rating, Pigweed (pigweed; [12]): 0
Plant response rating, Rice (rice; [4]): 0
Plant response rating, Rice (rice; 250 g ai/ha, scale 0 to 100): 0
Plant response rating, Ducksalad (ducksalad; [4]): 0
Plant response rating, Ducksalad (ducksalad; 250 g ai/ha, scale 0 to 100): 30
Plant response rating, Crabgrass, Large (crabgrass, large; [11]): 70
Plant response rating, Crabgrass, Large (crabgrass, large; [12]): 90
Plant response rating, Velvetleaf (velvetleaf; [11]): 0
Plant response rating, Velvetleaf (velvetleaf; [12]): 0
Plant response rating, Corn (corn; [11]): 0
Plant response rating, Corn (corn; [12]): 0
Plant response rating, Wheat (wheat; [11]): 0
Plant response rating, Wheat (wheat; [12]): 0

N#Cc1ccccc1NC(=O)C1C(=O)NCC1c1ccc(Cl)c(Cl)c1 (racemic) [Compound 15]
Plant response rating, Barnyardgrass (barnyardgrass [1]; [4]): 0
Plant response rating, Barnyardgrass (barnyardgrass [1]; 250 g ai/ha, scale 0 to 100): 0
Plant response rating, Foxtail, Giant (giant foxtail; [6]): 0
Plant response rating, Foxtail, Giant (giant foxtail; [7]): 0
Foxtail, Giant plant response rating (giant foxtail; [8]): 20
Plant response rating, Foxtail, Giant (giant foxtail; [9]): 50
Plant response rating, Morningglory (morningglory; [6]): 0
Plant response rating, Morningglory (morningglory; [7]): 0
Morningglory plant response rating (morningglory; [8]): 0
Plant response rating, Morningglory (morningglory; [9]): 0
Plant response rating, Barnyardgrass (barnyardgrass [2]; [6]): 0
Plant response rating, Barnyardgrass (barnyardgrass [2]; [7]): 0
Barnyardgrass plant response rating (barnyardgrass [2]; [8]): 0
Plant response rating, Barnyardgrass (barnyardgrass [2]; [10]): 0
Plant response rating, Sedge, Umbrella (sedge, umbrella; [4]): 0
Plant response rating, Sedge, Umbrella (sedge, umbrella; 250 g ai/ha, scale 0 to 100): 0
Plant response rating, Pigweed (pigweed; [6]): 0
Plant response rating, Pigweed (pigweed; [7]): 0
Pigweed plant response rating (pigweed; [8]): 0
Plant response rating, Pigweed (pigweed; [9]): 0
Plant response rating, Rice (rice; [4]): 0
Plant response rating, Rice (rice; 250 g ai/ha, scale 0 to 100): 0
Plant response rating, Ducksalad (ducksalad; [4]): 0
Plant response rating, Ducksalad (ducksalad; 250 g ai/ha, scale 0 to 100): 0
Plant response rating, Crabgrass, Large (crabgrass, large; [6]): 0
Plant response rating, Crabgrass, Large (crabgrass, large; [7]): 0
Crabgrass, Large plant response rating (crabgrass, large; [8]): 60
Plant response rating, Crabgrass, Large (crabgrass, large; [9]): 80
Plant response rating, Velvetleaf (velvetleaf; [6]): 0
Plant response rating, Velvetleaf (velvetleaf; [7]): 0
Velvetleaf plant response rating (velvetleaf; [8]): 0
Plant response rating, Velvetleaf (velvetleaf; [9]): 0
Plant response rating, Corn (corn; [6]): 0
Plant response rating, Corn (corn; [7]): 0
Corn plant response rating (corn; [8]): 0
Plant response rating, Corn (corn; [9]): 0
Plant response rating, Wheat (wheat; [6]): 0
Plant response rating, Wheat (wheat; [7]): 0
Wheat plant response rating (wheat; [8]): 0
Plant response rating, Wheat (wheat; [9]): 0

— patent publication US10294202B2, “Pyrrolidinones as herbicides” (FMC Corporation, priority 2013, dated 2019)
